Laboratory results as given in PubChem BioAssay AID1963432 (Molecular Pharmacology Branch, DTP, NCI, 2024).

Test system: SYO-1 complex spheroid growth, percent test/control
Assay: Anticancer human tumor SYO-1 cell line growth inhibition [Asc];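 note: compound exposure lasted 7 days after spheroids grew 3 days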;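 for viability, T/C: 100% = DMSO vehicle control viability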
Conditions: for IC50: curve of first compound; for viability, T/C: stronger effect = lower value
In short: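 Stromal components (HUVEC and hMSC) are co-assembled with the cancer cells into multicellular spheroids. Drugs are then added singly or paired, at concentrations falling by half-log increments from a clinically achievable maximum, capped at 10 microM without known Cmax.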

[1] = second compound 0.00949 µM, first compound 0.0316 µM
[2] = second compound 0.00949 µM, first compound 0.1 µM
[3] = second compound 0.00949 µM, first compound 0.316 µM
[4] = second compound 0.00949 µM, first compound 1 µM
[5] = second compound 0.03 µM, first compound 0.0316 µM
[6] = second compound 0.03 µM, first compound 0.1 µM
[7] = second compound 0.03 µM, first compound 0.316 µM
[8] = second compound 0.03 µM, first compound 1 µM
[9] = second compound 0.0949 µM, first compound 0.0316 µM
[10] = second compound 0.0949 µM, first compound 0.1 µM
[11] = second compound 0.0949 µM, first compound 0.316 µM
[12] = second compound 0.0949 µM, first compound 1 µM
[13] = second compound 0.3 µM, first compound 0.0316 µM
[14] = second compound 0.3 µM, first compound 0.1 µM
[15] = second compound 0.3 µM, first compound 0.316 µM
[16] = second compound 0.3 µM, first compound 1 µM
[17] = second compound 0.949 µM, first compound 0.0316 µM
[18] = second compound 0.949 µM, first compound 0.1 µM
[19] = second compound 0.949 µM, first compound 0.316 µM
[20] = second compound 0.949 µM, first compound 1 µM
[21] = second compound 3 µM, first compound 0.0316 µM
[22] = second compound 3 µM, first compound 0.1 µM
[23] = second compound 3 µM, first compound 0.316 µM
[24] = second compound 3 µM, first compound 1 µM

C=CC(=O)N1CCN(c2nc(=O)n(-c3c(C)ccnc3C(C)C)c3nc(-c4c(O)cccc4F)c(F)cc23)C(C)C1 (centres undefined) + CCN1C(C(=O)NC23CCC(C(=O)O)(CC2)CC3)C(c2cccc(Cl)c2F)C2(C(=O)Nc3cc(Cl)ccc32)C12CCCCC2 was tested, and the IC50 (second compound 0.00949 µM) was over 10 µM, the IC50 (second compound 0.03 µM) was over 10 µM and the IC50 (second compound 0.0949 µM) was over 10 µM. It also gave an IC50 (second compound 0.3 µM) of under 0.0316 µM, an IC50 (second compound 0.949 µM) of under 0.0316 µM and an IC50 (second compound 3 µM) of under 0.0316 µM. It also gave a viability, T/C [1] of 101%, a viability, T/C [2] of 104% and a viability, T/C [3] of 103%. For the same compound, the viability, T/C [4] was 103%, the viability, T/C (second compound 0.00949 µM, first compound 3.16 µM) was 92% and the viability, T/C (second compound 0.00949 µM, first compound 10 µM) was 89.1%. The viability, T/C [5] was 98%, the viability, T/C [6] was 94.7% and the viability, T/C [7] was 96.7%. For the same compound, the viability, T/C [8] was 103%, the viability, T/C (second compound 0.03 µM, first compound 3.16 µM) was 97.6% and the viability, T/C (second compound 0.03 µM, first compound 10 µM) was 81.8%. For the same compound, the viability, T/C [9] was 78.5%, the viability, T/C [10] was 84% and the viability, T/C [11] was 76.7%. It also gave a viability, T/C [12] of 79.4%, a viability, T/C (second compound 0.0949 µM, first compound 3.16 µM) of 75.9% and a viability, T/C (second compound 0.0949 µM, first compound 10 µM) of 56.2%. For the same compound, the viability, T/C [13] was 29.8%, the viability, T/C [14] was 25.3% and the viability, T/C [15] was 25.2%. The viability, T/C [16] was 20.8%, the viability, T/C (second compound 0.3 µM, first compound 3.16 µM) was 21.3% and the viability, T/C (second compound 0.3 µM, first compound 10 µM) was 12.2%. The viability, T/C [17] was 3.03%, the viability, T/C [18] was 4.04% and the viability, T/C [19] was 2.34%. The viability, T/C [20] was 2.88%, the viability, T/C (second compound 0.949 µM, first compound 3.16 µM) was 2.48% and the viability, T/C (second compound 0.949 µM, first compound 10 µM) was 2.88%. For the same compound, the viability, T/C [21] was 1.34%, the viability, T/C [22] was 1.23% and the viability, T/C [23] was 1.3%. The viability, T/C [24] was 1.29%, the viability, T/C (second compound 3 µM, first compound 3.16 µM) was 1.12% and the viability, T/C (second compound 3 µM, first compound 10 µM) was 1.29%.

Compound CNC(C)C(=O)NC1CN(S(=O)(=O)c2cccc(S(=O)(=O)N3CCC4CCC(C(=O)NC(c5ccccc5)c5ccccc5)N4C(=O)C(NC(=O)C(C)NC)C3)c2)CCC2CCC(C(=O)NC(c3ccccc3)c3ccccc3)N2C1=O (centres undefined) + CCN1C(C(=O)NC23CCC(C(=O)O)(CC2)CC3)C(c2cccc(Cl)c2F)C2(C(=O)Nc3cc(Cl)ccc32)C12CCCCC2 has an IC50 (second compound 0.00949 µM) of over 1 µM, an IC50 (second compound 0.03 µM) of over 1 µM and an IC50 (second compound 0.0949 µM) of over 1 µM. The IC50 (second compound 0.3 µM) was under 0.00316 µM, the IC50 (second compound 0.949 µM) was under 0.00316 µM and the IC50 (second compound 3 µM) was under 0.00316 µM. For the same compound, the viability, T/C (second compound 0.00949 µM, first compound 0.00316 µM) was 109%, the viability, T/C (second compound 0.00949 µM, first compound 0.01 µM) was 104% and the viability, T/C [1] was 104%. It also gave a viability, T/C [2] of 112%, a viability, T/C [3] of 113% and a viability, T/C [4] of 98.7%. It also gave a viability, T/C (second compound 0.03 µM, first compound 0.00316 µM) of 99.2%, a viability, T/C (second compound 0.03 µM, first compound 0.01 µM) of 99.9% and a viability, T/C [5] of 99.2%. It also gave a viability, T/C [6] of 105%, a viability, T/C [7] of 101% and a viability, T/C [8] of 96.6%. It also gave a viability, T/C (second compound 0.0949 µM, first compound 0.00316 µM) of 85.7%, a viability, T/C (second compound 0.0949 µM, first compound 0.01 µM) of 82.6% and a viability, T/C [9] of 76.7%. For the same compound, the viability, T/C [10] was 75.3%, the viability, T/C [11] was 81.2% and the viability, T/C [12] was 70.6%. It also gave a viability, T/C (second compound 0.3 µM, first compound 0.00316 µM) of 26.2%, a viability, T/C (second compound 0.3 µM, first compound 0.01 µM) of 20% and a viability, T/C [13] of 16.1%. The viability, T/C [14] was 15.6%, the viability, T/C [15] was 16% and the viability, T/C [16] was 13.4%. For the same compound, the viability, T/C (second compound 0.949 µM, first compound 0.00316 µM) was 4.14%, the viability, T/C (second compound 0.949 µM, first compound 0.01 µM) was 1.95% and the viability, T/C [17] was 1.29%. For the same compound, the viability, T/C [18] was 1.74%, the viability, T/C [19] was 0.96% and the viability, T/C [20] was 0.61%. The viability, T/C (second compound 3 µM, first compound 0.00316 µM) was 1.42%, the viability, T/C (second compound 3 µM, first compound 0.01 µM) was 1.29% and the viability, T/C [21] was 0.76%. It also gave a viability, T/C [22] of 1.16%, a viability, T/C [23] of 0.78% and a viability, T/C [24] of 0.82%.
